Reference: patent US20240343704A1, “HALO-SUBSTITUTED AMINO PYRIDINE COMPOUNDS AS INHIBITORS OF THE HAEMATOPOIETIC PROGENITOR KINASE 1 (HPK1)” (priority 2021, published 2024)

How the values were obtained:
[1] = target: T1, Recombinant (1-346) HPK1 (h) (Homo sapiens, UniProt Q92918); test: HPK1 Human STE Kinase Enzymatic Radiometric Assay; format: biochemical; conditions: read-out: HPK1 IC50 nM Range*
T1 construct: Recombinant (1-346) HPK1 (h) is incubated with 8 mM MOPS pH 7.0
T1 sequence (Q92918 1-346): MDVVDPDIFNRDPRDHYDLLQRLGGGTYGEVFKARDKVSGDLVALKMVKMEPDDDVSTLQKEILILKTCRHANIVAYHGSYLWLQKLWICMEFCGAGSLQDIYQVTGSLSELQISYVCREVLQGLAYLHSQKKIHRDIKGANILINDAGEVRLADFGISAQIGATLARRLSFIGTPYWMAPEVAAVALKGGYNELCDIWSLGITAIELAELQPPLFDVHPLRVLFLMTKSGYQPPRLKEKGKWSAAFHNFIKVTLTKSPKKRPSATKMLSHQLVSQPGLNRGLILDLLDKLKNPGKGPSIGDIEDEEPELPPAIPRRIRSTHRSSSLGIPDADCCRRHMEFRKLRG
Description: A stock solution of 10 mM of test compound is prepared in DMSO. The compound plate was prepared by 3-fold and 9-point serial dilutions. […] The reaction is initiated by The addition of the Mg/ATP mix. After incubation for 40 minutes at RT, the reaction is stopped by the addition of phosphoric acid to a concentration of 0.5%.

[2] = target: Lck (h) (Homo sapiens, UniProt P06239); test: Lck Human  Kinase Enzymatic Radiometric Assay; format: biochemical; conditions: read-out: Lck IC50 nM Range*
Chain of Lck (h) (P06239 whole entry): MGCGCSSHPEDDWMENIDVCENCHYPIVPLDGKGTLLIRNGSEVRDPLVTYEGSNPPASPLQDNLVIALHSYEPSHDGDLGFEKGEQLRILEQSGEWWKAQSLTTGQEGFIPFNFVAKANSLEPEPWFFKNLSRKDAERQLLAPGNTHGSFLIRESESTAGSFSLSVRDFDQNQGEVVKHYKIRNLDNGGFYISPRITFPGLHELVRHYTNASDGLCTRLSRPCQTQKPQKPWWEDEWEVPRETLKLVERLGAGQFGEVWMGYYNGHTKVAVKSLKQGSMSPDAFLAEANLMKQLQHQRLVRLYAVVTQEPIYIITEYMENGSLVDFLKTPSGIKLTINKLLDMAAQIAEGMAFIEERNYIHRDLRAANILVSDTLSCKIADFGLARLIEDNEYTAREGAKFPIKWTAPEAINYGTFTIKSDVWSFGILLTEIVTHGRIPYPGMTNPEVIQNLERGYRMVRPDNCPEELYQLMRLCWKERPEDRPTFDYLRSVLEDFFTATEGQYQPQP
Summary of the method: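 Substrate 33P-incorporation measured by scintillation counting after spotting on P30 filtermat and phosphoric acid washes. Human Lck reacted 40 min at RT in 50 mM Tris pH 7.5 with 10 mM MgAcetate, [gamma-33P]-ATP, 250 uM Cdc2 peptide, 0.1 mM EGTA and 0.1 mM Na3VO4.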

Row | IC50 [1] [nM] | IC50 [2] [nM] | SMILES
1 | 11 to 100 | > 1000 | CN(C)CC1Cc2cc(-c3cc(-c4ccc(N5CCOCC5)cc4)c(F)nc3N)ccc2C(=O)N1 (stereo not drawn) [I-311, 6-(2-amino-6-fluoro-5-(4-morpholinophenyl)pyridin-3-yl)-3-((dimethylamino)methyl)-3,4-dihydroisoquinolin-1(2H)-one]
2 | 0.1 to 10 | > 1000 | CC(=O)N1CCC(Oc2ccc(-c3cc(-c4cc5c(cc4F)C(=O)NCC5)c(N)nc3F)cc2)CC1 [I-327, 6-(5-(4-((1-acetylpiperidin-4-yl)oxy)phenyl)-2-amino-6-fluoropyridin-3-yl)-7-fluoro-3,4-dihydroisoquinolin-1(2H)-one]
3 | 0.1 to 10 | > 1000 | C[C@H]1CN(C)CCN1c1ccc(-c2cc(-c3ccc4c(c3)CCNC4=O)c(N)nc2F)cc1 [I-282, (S)-6-(2-amino-5-(4-(2,4-dimethylpiperazin-1-yl)phenyl)-6-fluoropyridin-3-yl)-3,4-dihydroisoquinolin-1(2H)-one]
4 | 0.1 to 10 | > 1000 | CN1CCN(S(=O)(=O)c2ccc(-c3cc(-c4ccc5c(c4)CCNC5=O)c(N)nc3F)cc2)CC1 [I-207, 6-(2-amino-6-fluoro-5-(4-((4-methylpiperazin-1-yl)sulfonyl)phenyl)pyridin-3-yl)-3,4-dihydroisoquinolin-1(2H)-one]
5 | 0.1 to 10 | > 1000 | Nc1nc(F)c(-c2ccc(N3CCC4(CC3)CN(C3CCC3)C4)cc2)cc1-c1cc2c(cc1F)C(=O)NCC2 [I-449, 6-(2-amino-5-(4-(2-cyclobutyl-2,7-diazaspiro[3.5]nonan-7-yl)phenyl)-6-fluoropyridin-3-yl)-7-fluoro-3,4-dihydroisoquinolin-1(2H)-one]
6 | 0.1 to 10 | > 1000 | CC(C)N1CCC2(CC1)CC(=O)c1cc(-c3cc(-c4ccc5c(c4)CCNC5=O)c(N)nc3F)ccc1O2 [I-222, 6-(6-amino-2-fluoro-5-(1-oxo-1,2,3,4-tetrahydroisoquinolin-6-yl)pyridin-3-yl)-1′-isopropylspiro[chromane-2,4′-piperidin]-4-one]
7 | 0.1 to 10 | > 1000 | CC(=O)N1CCN(c2ccc(-c3cc(-c4ccc5c(c4)CCNC5=O)c(N)nc3F)cc2C(F)(F)F)CC1 [I-200, 6-(5-(4-(4-acetylpiperazin-1-yl)-3-(trifluoromethyl)phenyl)-2-amino-6-fluoropyridin-3-yl)-3,4-dihydroisoquinolin-1(2H)-one]
8 | 0.1 to 10 | > 1000 | Nc1nc(F)c(-c2ccc(N3CCN(CC4CC4)CC3)cc2)cc1-c1cc(F)c2c(=O)[nH]cnc2c1 [I-407, 7-(2-amino-5-(4-(4-(cyclopropylmethyl)piper-azin-1-yl)phenyl)-6-fluoropyridin-3-yl)-5-fluoroquinazolin-4(3H)-one]
9 | 0.1 to 10 | > 1000 | COc1cc(-c2cc(-c3ccc4c(c3)CCNC4=O)c(N)nc2F)ccc1OC1CCN(C(C)=O)CC1 [I-305, 6-(5-(4-((1-acetylpiperidin-4-yl)oxy)-3-methoxyphenyl)-2-amino-6-fluoropyridin-3-yl)-3,4-dihydroisoquinolin-1(2H)-one]
10 | 0.1 to 10 | > 1000 | Cc1[nH]c(=O)c2c(F)cc(-c3cc(-c4ccc(N5CCN(C(C)C)CC5)cc4)c(F)nc3N)cc2c1F [I-481, 6-(2-amino-6-fluoro-5-(4-(4-isopropylpiperazin-1-yl)phenyl)pyridin-3-yl)-4,8-difluoro-3-methylisoquinolin-1(2H)-one]
11 | 0.1 to 10 | > 1000 | Cc1nc2cc(-c3cc(-c4ccc(N5CCN(CC6CC6)CC5)cc4)c(F)nc3N)cc(F)c2c(=O)[nH]1 [I-416, 7-(2-amino-5-(4-(4-(cyclopropylmethyl)piper-azin-1-yl)phenyl)-6-fluoropyridin-3-yl)-5-fluoro-2-methylquinazolin-4(3H)-one]
12 | 0.1 to 10 | > 1000 | Nc1nc(F)c(-c2ccc(N3CCN(CC4CC4)CC3)cc2)cc1-c1cc2cc[nH]c(=O)c2cc1F [I-376, 6-(2-amino-5-(4-(4-(cyclopropylmethyl)piper-azin-1-yl)phenyl)-6-fluoropyridin-3-yl)-7-fluoroisoquinolin-1(2H)-one]

Further lines, the compound ahead of its results:

Row | SMILES | IC50 [1] [nM] | IC50 [2] [nM]
13 | CC(C)N1CCCC(c2ccc(-c3cc(-c4ccc5c(c4)CCNC5=O)c(N)nc3F)cc2)C1 (stereo not drawn) [I-80, 6-(2-amino-6-fluoro-5-(4-(1-isopropylpiperidin-3-yl)phenyl)pyridin-3-yl)-3,4-dihydroisoquinolin-1(2H)-one] | 0.1 to 10 | > 1000
14 | COc1cc(OC2CCNCC2)ccc1-c1cc(-c2ccc3c(c2)CCNC3=O)c(N)nc1F [I-150, 6-(2-amino-6-fluoro-5-(2-methoxy-4-(piperidin-4-yloxy)phenyl)pyridin-3-yl)-3,4-dihydroisoquinolin-1(2H)-one] | 11 to 100 | > 1000
15 | CS(=O)(=O)[C@H]1CCN(c2ccc(-c3cc(-c4ccc5c(c4)CCNC5=O)c(N)nc3F)cc2)C1 [I-117, (S)-6-(2-amino-6-fluoro-5-(4-(3-(methylsulfonyl)pyrrolidin-1-yl)phenyl)pyridin-3-yl)-3,4-dihydroisoquinolin-1(2H)-one] | 0.1 to 10 | > 1000
16 | CN1CCN(c2ccc(-c3cc(-c4ccc5c(c4)C(C)(C)NC5=O)c(N)nc3F)cc2)CC1 [I-33, 5-(2-amino-6-fluoro-5-(4-(4-Methylpiperazin-1-yl)phenyl)pyridin-3-yl)-3,3-dimethylisoindolin-1-one] | 0.1 to 10 | > 1000
17 | CN1C=NN(c2ccc(-c3cc(-c4ccc5c(c4)CCNC5=O)c(N)nc3F)cc2)CC1 [I-118, 6-(2-amino-6-fluoro-5-(4-(4-methyl-5,6-dihydro-1,2,4-triazin-1(4H)-yl)phenyl)pyridin-3-yl)-3,4-dihydroisoquinolin-1(2H)-one] | 0.1 to 10 | > 1000
18 | C[C@H]1CN(c2ccc(-c3cc(-c4ccc5c(c4)CCNC5=O)c(N)nc3F)cc2)C[C@H](C)N1C [I-97, 6-(2-amino-6-fluoro-5-(4-((3S,5S)-3,4,5-trimethylpiperazin-1-yl)phenyl)pyridin-3-yl)-3,4-dihydroisoquinolin-1(2H)-one] | 0.1 to 10 | > 1000
19 | CN1CCN(c2ccc(-c3cc(-c4ccc5c(c4)CCNC5=O)c(N)nc3F)cc2C(F)(F)F)CC1 [I-68, 6-(2-amino-6-fluoro-5-(4-(4-methylpiperazin-1-yl)-3-(trifluoromethyl)phenyl)pyridin-3-yl)-3,4-dihydroisoquinolin-1(2H)-one] | 0.1 to 10 | > 1000
20 | CS(=O)(=O)N1CCC(Oc2ccc(-c3cc(-c4ccc5c(c4)CCNC5=O)c(N)nc3F)cc2)CC1 [I-54, 6-(2-amino-6-fluoro-5-(4-((1-(methylsulfonyl)piperidin-4-yl)oxy)phenyl)pyridin-3-yl)-3,4-dihydroisoquinolin-1(2H)-one] | 0.1 to 10 | > 1000
21 | CN(C)S(=O)(=O)c1ccc(-c2cc(-c3ccc4c(c3)CCNC4=O)c(N)nc2F)cc1 [I-64, 4-(6-amino-2-fluoro-5-(1-oxo-1,2,3,4-tetrahydroisoquinolin-6-yl)pyridin-3-yl)-N,N-dimethylbenzenesulfonamide] | 0.1 to 10 | > 1000
22 | Nc1nc(F)c(-c2ccc(C3CCN(C4COC4)CC3)cc2)cc1-c1ccc2c(c1)CCNC2=O [I-152, 6-(2-amino-6-fluoro-5-(4-(1-(oxetan-3-yl)piperidin-4-yl)phenyl)pyridin-3-yl)-3,4-dihydroisoquinolin-1(2H)-one] | 0.1 to 10 | > 1000
23 | Nc1nc(F)c(-c2ccc(N3CCNCC3)cc2)cc1-c1ccc2c(c1)CCNC2=O [I-17, 6-(2-amino-6-fluoro-5-(4-(piperazin-1-yl)phenyl)pyridin-3-yl)-3,4-dihydroisoquinolin-1(2H)-one] | 0.1 to 10 | > 1000
24 | CO[C@H](C)CN1CCN(c2ccc(-c3cc(-c4ccc5c(c4)CCNC5=O)c(N)nc3F)cc2)CC1 [I-25, (R)-6-(2-amino-6-fluoro-5-(4-(4-(2-methoxypropyl)piperazin-1-yl)phenyl)pyridin-3-yl)-3,4-dihydroisoquinolin-1(2H)-one] | 0.1 to 10 | > 1000
25 | CS(=N)(=O)c1ccc(-c2cc(-c3ccc4c(c3)CCNC4=O)c(N)nc2F)cc1 (stereo not drawn) [I-86, 6-(2-amino-6-fluoro-5-(4-(S-methylsulfonimidoyl)phenyl)pyridin-3-yl)-3,4-dihydroisoquinolin-1(2H)-one] | 0.1 to 10 | > 1000
26 | Nc1nc(F)c(-c2ccc(OC3CCN(CC(F)(F)F)CC3)cc2)cc1-c1ccc2c(c1)CCNC2=O [I-186, 6-(2-amino-6-fluoro-5-(4-((1-(2,2,2-trifluoroethyl)piperidin-4-yl)oxy)phenyl)pyridin-3-yl)-3,4-dihydroisoquinolin-1(2H)-one] | 11 to 100 | > 1000
27 | Nc1nc(Cl)c(-c2ccc(N3CCN(CC(F)F)CC3)cc2)cc1-c1ccc2c(c1)CCNC2=O [I-168, 6-(2-amino-6-chloro-5-(4-(4-(2,2-difluoroethyl)piperazin-1-yl)phenyl)pyridin-3-yl)-3,4-dihydroisoquinolin-1(2H)-one] | 11 to 100 | > 1000
